In the supplement of paper PMC11061612:

Legend:
[1] = compound: C1CC(C1)(C(=O)[O-])C(=O)[O-].N.N.[Pt+2] [Carboplatin]; details: max 10 µM
Summary of the method: (§1)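 Cancer cell lines were seeded into 1536-well plates in 7.5 μl medium (DMEM/F12 or RPMI, 10% FBS), held 24 hours at 37°C and 5% CO2, and dosed for 72 hours with final DMSO typically 0.2%. Luminescence from CellTiter-Glo 2.0, scaled between blank-well and DMSO-well means, served as viability. The single-agent IC50 was obtained from dose-response fits with a non-linear mixed effects model, each fit being a two-parameter logistic curve.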

[2] = compound: C1CN(CCC1(C(=O)N[C@@H](CCO)C2=CC=C(C=C2)Cl)N)C3=NC=NC4=C3C=CN4 [AZD5363]; details: max 10 µM
Summary of the method: as §1

[3] = compound: C=CCn1c(=O)c2cnc(Nc3ccc(N4CCN(C)CC4)cc3)nc2n1-c1cccc(C(C)(C)O)n1 [AZD1775]; details: max 3 µM
Summary of the method: as §1

[4] = compound: CC(=O)Nc1cccc(-n2c(=O)n(C3CC3)c(=O)c3c(Nc4ccc(I)cc4F)n(C)c(=O)c(C)c32)c1 [Trametinib]; details: max 1 µM
Summary of the method: as §1

[5] = compound: CC(=O)O[C@H]1C(=O)[C@@]2(C)[C@H]([C@H](OC(=O)c3ccccc3)[C@]3(O)C[C@H](OC(=O)[C@H](O)[C@@H](NC(=O)c4ccccc4)c4ccccc4)C(C)=C1C3(C)C)[C@]1(OC(C)=O)CO[C@@H]1C[C@@H]2O [Paclitaxel]; details: max 3 µM
Summary of the method: as §1

[6] = compound: CC(=O)c1c(C)c2cnc(Nc3ccc(N4CCNCC4)cn3)nc2n(C2CCCC2)c1=O [Palbociclib]; details: max 10 µM
Summary of the method: as §1

[7] = compound: CC(C)n1c(=O)n(C)c2cnc3cc(F)c(-c4ccc(OCCCN5CCCCC5)nc4)cc3c21 [AZD1390]; details: max 0.3 µM
Summary of the method: as §1

[8] = compound: CC1(C)CCC(CN2CCN(c3ccc(C(=O)NS(=O)(=O)c4ccc(NCC5CCOCC5)c([N+](=O)[O-])c4)c(Oc4cnc5[nH]ccc5c4)c3)CC2)=C(c2ccc(Cl)cc2)C1 [Venetoclax]; details: max 1 µM
Summary of the method: as §1

[9] = compound: CC1=C(C(=CC=C1)Cl)NC(=O)C2=CN=C(S2)NC3=CC(=NC(=N3)C)N4CCN(CC4)CCO [Dasatinib]; details: max 2 µM
Summary of the method: as §1

[10] = compound: CC1=CN2[C@@H](C1)C=NC3=CC(=C(C=C3C2=O)OC)OCCCCCOC4=C(C=C5C(=C4)N=C[C@@H]6CC(=CN6C5=O)C)OC [SG3199]; details: max 0.001 µM
Summary of the method: as §1

[11] = compound: CCN(CCO)CCCOc1ccc2c(Nc3cc(CC(=O)Nc4cccc(F)c4)[nH]n3)ncnc2c1 [AZD2811]; details: max 1 µM
Summary of the method: as §1

[12] = compound: CCc1c2c(nc3ccc(O)cc13)-c1cc3c(c(=O)n1C2)COC(=O)[C@]3(O)CC [SN-38]; details: max 0.3 µM
Summary of the method: as §1

[13] = compound: CN(C)CCCOc1ccc(-c2ccc3ncc4c(c3c2)n(C2CCOCC2)c(=O)n4C)cn1 [AZD0156]; details: max 3 µM
Summary of the method: as §1

[14] = compound: CN(CC[C@H](CSC1=CC=CC=C1)NC2=C(C=C(C=C2)S(=O)(=O)NC(=O)C3=CC=C(C=C3)N4CCC(CC4)[C@H](C5=CC=CC=C5C6=CC=C(C=C6)Cl)O)S(=O)(=O)C(F)(F)F)CCO [AZD4320]; details: max 1 µM
Summary of the method: as §1

[15] = compound: COc1cc(Nc2ncc3c(n2)-c2ccc(Cl)cc2C(c2c(F)cccc2OC)=NC3)ccc1C(=O)O [Alisertib]; details: max 10 µM
Summary of the method: as §1

[16] = compound: COc1cc([C@@H]2c3cc4c(cc3[C@@H](O[C@@H]3O[C@@H]5CO[C@@H](C)O[C@H]5[C@H](O)[C@H]3O)[C@H]3COC(=O)[C@H]23)OCO4)cc(OC)c1O [Etoposide]; details: max 10 µM
Summary of the method: as §1

[17] = compound: COc1cc2ncnc(Nc3ccc(F)c(Cl)c3)c2cc1OCCCN1CCOCC1 [Gefitinib]; details: max 10 µM
Summary of the method: as §1

[18] = compound: COc1cccc(OCCCN)c1-c1cc(Nc2cnc(C#N)cn2)n[nH]1 [Prexasertib]; details: max 1 µM
Summary of the method: as §1

[19] = compound: COc1cccc2c1C(=O)c1c(O)c3c(c(O)c1C2=O)C[C@@](O)(C(=O)CO)C[C@@H]3O[C@H]1C[C@H](N)[C@H](O)[C@H](C)O1 [Doxorubicin]; details: max 1 µM
Summary of the method: as §1

[20] = compound: COc1nnc2ccc(N3CCC(c4ccc(OCCN5CCN(C)C(=O)[C@H]5C)cc4)CC3)nn12 [AZD5153]; details: max 1 µM
Summary of the method: as §1

[21] = compound: CS(=O)(=O)CCNCc1ccc(-c2ccc3ncnc(Nc4ccc(OCc5cccc(F)c5)c(Cl)c4)c3c2)o1 [Lapatinib]; details: max 10 µM
Summary of the method: as §1

[22] = compound: C[C@@H](Nc1cc(F)cc(F)c1)c1cc(C(=O)N(C)C)cc2c(=O)cc(N3CCOCC3)oc12 [AZD8186]; details: max 10 µM
Summary of the method: as §1

[23] = compound: C[C@@H](Oc1cc(-c2cnn(C3CCNCC3)c2)cnc1N)c1c(Cl)ccc(F)c1Cl [Crizotinib]; details: max 10 µM
Summary of the method: as §1

[24] = compound: C[C@@H](c1ccc2nccn2c1)n1nnc2ncc(-c3cnn(C)c3)nc21 [Savolitinib]; details: max 1 µM
Summary of the method: as §1

[25] = compound: C[C@@H]1COCCN1C2=NC(=NC(=C2)C3(CC3)[S@](=N)(=O)C)C4=C5C=CNC5=NC=C4 [AZD6738]; details: max 10 µM
Summary of the method: as §1

[26] = compound: Cc1c2c(nn1C)CSCc1cc(n(C)n1)CSc1cc(c3ccccc3c1)OCCCc1c(C(=O)O)n(C)c3c-2c(Cl)ccc13 [AZD5991]; details: max 1 µM
Summary of the method: as §1

[27] = compound: Cc1cc2ncnn2cc1Nc1ncc2c(n1)n(C1CCOCC1)c(=O)n2C [AZD7648]; details: max 10 µM
Summary of the method: as §1

[28] = compound: Cc1nc(-c2cn3c(n2)-c2ccc(-c4cnn(C(C)(C)C(N)=O)c4)cc2OCC3)n(C(C)C)n1 [Taselisib]; details: max 10 µM
Summary of the method: as §1

[29] = compound: Cn1cnc2c(F)c(Nc3ccc(Br)cc3Cl)c(C(=O)NOCCO)cc21 [Selumetinib]; details: max 10 µM
Summary of the method: as §1

[30] = compound: N#Cc1cnc(Nc2cc(NC[C@H]3CNCCO3)c(C(F)(F)F)cn2)cn1 [SRA737]; details: max 10 µM
Summary of the method: as §1

[31] = compound: NC1(c2ccc(-c3nc4ccn5c(=O)[nH]nc5c4cc3-c3ccccc3)cc2)CCC1 [MK-2206]; details: max 10 µM
Summary of the method: as §1

[32] = compound: Nc1ccn([C@@H]2O[C@H](CO)[C@@H](O)C2(F)F)c(=O)n1 [Gemcitabine]; details: max 0.3 µM
Summary of the method: as §1

[33] = compound: O=C(Nc1ccc2[nH]nc(-c3ccncc3)c2c1)[C@@H]1CCN(CC(=O)N2CCN(c3ccc(-c4ncccn4)cc3)CC2)C1; details: max 5 µM
Summary of the method: as §1

[34] = compound: O=C(c1cc(Cc2n[nH]c(=O)c3ccccc23)ccc1F)N1CCN(C(=O)C2CC2)CC1 [Olaparib]; details: max 10 µM
Summary of the method: as §1

[35] = compound: O=c1[nH]cc(F)c(=O)[nH]1 [5-Fluorouracil]; details: max 20 µM
Summary of the method: as §1

| Cell Line | IC50, cell viability 72 h [1] | IC50, cell viability 72 h [2] | IC50, cell viability 72 h [3] | IC50, cell viability 72 h [4] | IC50, cell viability 72 h [5] | IC50, cell viability 72 h [6] | IC50, cell viability 72 h [7] | IC50, cell viability 72 h [8] | IC50, cell viability 72 h [9] | IC50, cell viability 72 h [10] | IC50, cell viability 72 h [11] | IC50, cell viability 72 h [12] | IC50, cell viability 72 h [13] | IC50, cell viability 72 h [14] | IC50, cell viability 72 h [15] | IC50, cell viability 72 h [16] | IC50, cell viability 72 h [17] | IC50, cell viability 72 h [18] | IC50, cell viability 72 h [19] | IC50, cell viability 72 h [20] | IC50, cell viability 72 h [21] | IC50, cell viability 72 h [22] | IC50, cell viability 72 h [23] | IC50, cell viability 72 h [24] | IC50, cell viability 72 h [25] | IC50, cell viability 72 h [26] | IC50, cell viability 72 h [27] | IC50, cell viability 72 h [28] | IC50, cell viability 72 h [29] | IC50, cell viability 72 h [30] | IC50, cell viability 72 h [31] | IC50, cell viability 72 h [32] | IC50, cell viability 72 h [33] | IC50, cell viability 72 h [34] | IC50, cell viability 72 h [35] |
| --- | --- | --- | --- | --- | --- | --- | --- | --- | --- | --- | --- | --- | --- | --- | --- | --- | --- | --- | --- | --- | --- | --- | --- | --- | --- | --- | --- | --- | --- | --- | --- | --- | --- | --- | --- |
| BFTC-905 (Bladder Carcinoma) | > 10 µM | > 10 µM | 0.68 µM | 0.0864 µM | 0.00602 µM | > 10 µM | > 0.3 µM | > 1 µM | 1.53 µM | > 0.001 µM | > 1 µM | 0.00455 µM | > 3 µM | > 1 µM | 1.25 µM | 1.16 µM | > 10 µM | 0.117 µM | 0.196 µM | 0.173 µM | > 10 µM | > 10 µM | 5.24 µM | > 1 µM | 3.79 µM | > 1 µM | > 10 µM | 1.39 µM | 6.56 µM | > 10 µM | > 10 µM | 0.0107 µM | 1.05 µM | > 10 µM | > 20 µM |
| BL-41 (Burkitt's Lymphoma) | > 10 µM | > 10 µM | 0.264 µM | > 1 µM | 0.00391 µM | > 10 µM | > 0.3 µM | > 1 µM | > 2 µM | > 0.001 µM | 0.048 µM | 0.00217 µM | > 3 µM | > 1 µM | 0.0285 µM | 0.342 µM | > 10 µM | 0.00367 µM | 0.0377 µM | 0.046 µM | 6.1 µM | > 10 µM | 2.44 µM | > 1 µM | 0.618 µM | 0.0482 µM | > 10 µM | > 10 µM | > 10 µM | 2 µM | > 10 µM | 0.0085 µM | > 5 µM | > 10 µM | > 20 µM |
| CAMA-1 (Breast Carcinoma) | > 10 µM | 4.86 µM | > 3 µM | > 1 µM | 0.112 µM | > 10 µM | > 0.3 µM | > 1 µM | > 2 µM | > 0.001 µM | > 1 µM | > 0.3 µM | > 3 µM | > 1 µM | > 10 µM | > 10 µM | > 10 µM | > 1 µM | > 1 µM | > 1 µM | > 10 µM | 7.76 µM | > 10 µM | > 1 µM | > 10 µM | > 1 µM | > 10 µM | > 10 µM | > 10 µM | > 10 µM | > 10 µM | > 0.3 µM | > 5 µM | > 10 µM | > 20 µM |
| DND-41 (T-Lymphoblastic Leukemia) | > 10 µM | > 10 µM | 0.334 µM | > 1 µM | > 3 µM | > 10 µM | > 0.3 µM | 0.546 µM | > 2 µM | > 0.001 µM | > 1 µM | 0.00288 µM | > 3 µM | 0.0338 µM | > 10 µM | 0.763 µM | > 10 µM | 0.00675 µM | 0.424 µM | 0.595 µM | 7.51 µM | > 10 µM | 4.77 µM | > 1 µM | 1.5 µM | > 1 µM | > 10 µM | > 10 µM | > 10 µM | 1.09 µM | > 10 µM | 0.0954 µM | > 5 µM | > 10 µM | > 20 µM |
| ES1 (Ewing's Sarcoma) | > 10 µM | > 10 µM | 0.784 µM | > 1 µM | < 0.003 µM | 2.17 µM | > 0.3 µM | > 1 µM | > 2 µM | > 0.001 µM | 0.51 µM | 0.0031 µM | > 3 µM | > 1 µM | 2.37 µM | 0.335 µM | > 10 µM | 0.0135 µM | 0.101 µM | 0.604 µM | > 10 µM | 8.67 µM | 2.48 µM | > 1 µM | 1.73 µM | 0.435 µM | > 10 µM | 1.05 µM | > 10 µM | 2 µM | 3.97 µM | 0.00261 µM | > 5 µM | 4.47 µM | 9.22 µM |
